Results published in ChEMBL document CHEMBL3351369, “Phenylpropanoid acid esters from Korean propolis and their antioxidant activities” (Bioorg Med Chem Lett, 2014).

Assays:
[1] = Antioxidant activity assessed as hydroxyl radical scavenging activity at 50 uM after 30 mins by Fenton reaction-induced DNA single strand breakage method; assay type: physicochemical; settings: 0.5 h
[2] = Ratio of compound IC50 to trolox IC50 for DPPH radical scavenging activity after 30 mins by spectrophotometry
[3] = Antioxidant activity assessed as ABTS radical scavenging activity after 12 hrs by spectrophotometry; assay type: physicochemical
[4] = Antioxidant activity assessed as DPPH radical scavenging activity after 30 mins by spectrophotometry; assay type: physicochemical; settings: 0.5 h
[5] = Ratio of compound IC50 to trolox IC50 for ABTS radical scavenging activity after 12 hrs by spectrophotometry
[6] = Antioxidant activity assessed as ABTS radical scavenging activity up to 1 mM after 12 hrs by spectrophotometry; assay type: physicochemical
[7] = Antioxidant activity assessed as DPPH radical scavenging activity up to 1 mM after 30 mins by spectrophotometry; assay type: physicochemical; settings: 0.5 h

Row | SMILES | Activity [1] | Activity [3] | Activity [4] | Activity [6] | Activity [7] | Ratio IC50 [2] | Ratio IC50 [5]
1 | O=C(/C=C/c1ccccc1)OC/C=C/c1ccccc1 | – | – | – | Not Active | Not Active | > 500 | > 500
2 | Cc1c(C)c2c(c(C)c1O)CCC(C)(C(=O)O)O2 (stereo not given) | – | – | – | – | – | 1 | 1
3 | O=C(/C=C/c1ccc(O)c(O)c1)OCCc1ccccc1 [CAFFEIC ACID PHENETHYL ESTER] | Active | Dose-dependent effect | Dose-dependent effect | – | – | 0.46 | 6.3
4 | COc1cc(/C=C/C(=O)OCc2ccccc2)ccc1O [BENZYL FERULATE] | Not Active | Dose-dependent effect | Dose-dependent effect | – | – | 92.1 | 24.8
5 | COc1ccc(/C=C/C(=O)OC/C=C/c2ccccc2)cc1OC | – | – | – | – | – | > 500 | > 500

Continued, in another order:

Row | Activity [1] | Activity [3] | Activity [4] | Activity [6] | Activity [7] | SMILES | Ratio IC50 [2] | Ratio IC50 [5]
6 | Active | Dose-dependent effect | Dose-dependent effect | – | – | O=C(/C=C/c1ccc(O)c(O)c1)OCc1ccccc1 [BENZYL CAFFEATE] | 3.86 | 3.42
7 | Not Active | Dose-dependent effect | Dose-dependent effect | – | – | COc1cc(/C=C/C(=O)OCC=C(C)C)ccc1O | 105 | 23.1
8 | – | – | – | Not Active | Not Active | O=C(/C=C/c1ccc(O)cc1)OC/C=C/c1ccccc1 | > 500 | > 500
9 | – | – | – | Not Active | Not Active | O=C(/C=C/c1ccc(O)cc1)OCc1ccccc1 | > 500 | > 500
10 | Active | Dose-dependent effect | Dose-dependent effect | – | – | CCOC(=O)/C=C/c1ccc(O)c(O)c1 [ETHYL CAFFEATE] | 6.3 | 10.6
11 | – | – | – | Not Active | Not Active | O=C(/C=C/c1ccccc1)OCCc1ccccc1 [PHENETHYL CINNAMATE] | > 500 | > 500
